Patent US9173920B2, “Methods of treating muscular wasting diseases using NF-KB activation inhibitors” (TheraLogics, Inc., priority 2006, dated 2015)

Test system: mdx−/− mice
Experiment: Diaphragm muscle force measurement after treating mdx−/− mice with peptides comprising NEMO binding domains (Example 3)
Assay type: in vivo
Details: for treated mice in which force output was higher: diaphragm muscle
Procedure: In this Example, three week old male mdx−/− mice were treated with various peptides comprising NEMO binding domains. The diaphragm muscles of the mice were then evaluated to determine the ability of the peptides to treat muscle wasting in the mdx mice.
Three week old mdx−/− mice were treated by intraperitoneal injections with 200 μg of either a wild type peptide (SEQ ID NO 19) comprising a NEMO binding domain or a mutant peptide (SEQ ID NO 20). The mice were injected every three days for a total trial period of 27 days. After 27 days, the mice were sacrificed and the diaphragm muscles were removed.
The diaphragm muscles were placed in a chamber filled with Ringer solution and perfused continuously with an O2/CO2 mixture. The muscles were then attached using a steel hook to a force transducer and subsequently stimulated at varying frequencies. At each frequency, forces were allowed to reach a steady state before the data was recorded.

[1] = three week old male mdx−/− mice, 200 μg intraperitoneal every three days for 27 days, FIG. 5

## wild type peptide: wild type peptide (SEQ ID NO 19) comprising a NEMO binding domain (TALDWSWLQTE; NBD mutants)
injection, summary statement on Example 3
  effect on dystrophic phenotype in affected mice: inhibit the dystrophic phenotype
[1]
  treated mice in which force output was higher: three of the four
Three week old male mdx−/− mice, 200 μg intraperitoneal every three days for 27 days, excised diaphragm in Ringer solution, compared to mutant peptide, FIG. 5
  tetanic contractions (force) of diaphragm muscles at various stimulation frequencies: generally higher tentanic contractions

## mutant peptide: mutant peptide (SEQ ID NO 20) used as comparator to the wild type NEMO binding domain peptide (TALDASALQTE; NBD mutants) [reference compound]
[1]
  treated mice in which force output was higher: one of the three
